Patent EP0114002B1, “Benzothiopyrano(4,3,2,-cd)indazoles, their pharmaceutical compositions and methods for their production” (WARNER-LAMBERT COMPANY, priority 1983, dated 1984)
pIC50: −log10 of the molar value. Read-outs that look alike come from different tables or passages of the source.

Assays:
[1] = system: L1210 cells; assay: L1210 murine leukemia cell growth inhibition in vitro; assay type: cell-based; settings: Mus musculus, 72 h
Experimental: Another test protocol uses L1210 cells, a murine leukemia cell line, grown in RPMI 1640 supplemented with 5% fetal bovine serum and gentamicin ([…]). Drug dilutions are prepared in the appropriate solvent and 20 µl of each dilution are added to 24-well Linbro tissue culture plates, followed by the addition of 2.0 ml of cell suspension containing 3 x 10^4 cells per ml. Solvent and medium controls are included in each test. After incubation at 37°C forthree days in 5% C02, the contents of each well are removed and the cells counted in a ZBI Coulter counter. Percent growth are calculated relative to the controls and the levels of drug activity are expressed as ID50 in moles per liter.

[2] = system: HCT-8 cells; assay: in vitro proliferating human colon adenocarcinoma (HCA) cell screen; assay type: cell-based
Experimental: One test protocol is the in vitro proliferating human colon adenocarcinoma (HCA) cell screen. In this test, HCT-8 cells (HCA cell line received from Yale University) are trypsinized using trypsin-EDTA. A single cell suspension is achieved by passing the cells through a 26 gauge needle with a 20 cc syringe. A cell suspension is prepared using RPMI 1640 + 10% FCS + 50) g/ml gentamicin sulfate with a cell concentration of approximately 30,000 cells/ml. The cell suspension is dispensed in Linbro 24-well plates; 1 ml/well. The plates are incubated for approximately 48 hours at 37°C in a 5% C02 atmosphere. At this time test compounds are added in the appropriate concentration. Five µl of the 200 µg/ml stock solution is added to each well in primary test. Ten µl of the appropirate dilution is added to each well for a titration test. The plates are re-incubated an additional 60 to 65 hours at 37°C in a 5% C02 atmosphere. The cells are lysed using a mix of cationic surfactant, glacial acetic acid, and sodium chloride. Two ml of the lysed cell suspension from each well is added to 8 ml of diluent. The number of nuclei is determined using a Coulter counter (ZBI model), and a percent growth for each drug concentration is calculated. From this, an ID50 molar concentration of a compound (that results in 50% inhibition of growth) is determined.

[3] = system: lymphocytic leukemia P388; assay: in vivo lymphocytic leukemia P388 test; design: species or system mice; settings: for response vs control in vivo at 6.25 mg/kg: Dose 6.25 mg/kg intraperitoneally once daily for five days; for response vs control in vivo at 12.5 mg/kg: Dose 12.50 mg/kg intraperitoneally once daily for five days; for response vs control in vivo at 25 mg/kg: Dose 25.00 mg/kg intraperitoneally once daily for five days; for response vs control in vivo at 50 mg/kg: Dose 50.00 mg/kg intraperitoneally once daily for five days; for P388 in vivo Cures: remark printed beside T/C × 100
Experimental: Another test protocol is the in vivo lymphocytic leukemia P388 test. The animals used are either male or female CD2F, mice. There are six or seven animals per test group. The tumor transplant is by intraperitoneal injection of dilute ascitic fluid containing cells of lymphocytic leukemia P388. The test compounds are administered intraperitoneally once daily for five consecutive days at various doses following tumor inoculation. The animals are weighed and survivors are recorded on a regular basis for 30 days. A compound is designated "toxic" if, at a given dose, all animals died prior to four days after the first injection of drug. A ratio of survival time for treated (T)/control (C) animals is calculated. A criterion for efficacy is a ratio T/C times 100 greater than or equal to 125. See Cancer Chemotherapy Reports, Part 3, 3; 1 (1972) for a comprehensive discussion of the protocol.

[4] = system: Aerobacter aerogenes 0126; assay: in vitro antibacterial/antifungal (ABF) agar-disk diffusion test; assay type: cell-based; settings: Klebsiella aerogenes, read-out: ABF Zone Diameter (cont. in mg/ml) A. Aero-genes; for zone of inhibition at 3000 µg/mL: 3 mg/ml; for zone of inhibition at 500 µg/mL: 0.5 mg/ml
Experimental: (§1) Still another test protocol is the in vitro antibacterial/antifungal (ABF) test. Compounds are tested for antimicrobial activity in an agar-disk diffusion assay, a standard microbiological technique for testing antibiotics'. After incubation of each culture with a test compound, a zone of inhibition is determined. The zone diameter (mm) of active compounds ranges from a minimum of 13.5 mm to as high as 60 mm, with a greater diameter reflecting higher activity. For convenience, values are reported for two gram-negative bacteria (Aerobacter aerogenes 0126 and Escherichia coli 04863), two gram-positive bacteria (Bacillus subtilis 04555 and Streptococcus faecalis 05045 utilizing AM-09 medium), and one mycelial fungus (Penicillium avellaneum M2988).

[5] = system: Bacillus subtilis 04555; assay: as above; assay type: cell-based; settings: read-out: ABF Zone Diameter (cont. in mg/ml) B. Sub-tilis; for zone of inhibition at 3000 µg/mL: 3 mg/ml; for zone of inhibition at 1000 µg/mL: 1 mg/ml; for zone of inhibition at 500 µg/mL: 0.5 mg/ml
Experimental: as §1

[6] = system: Escherichia coli 04863; assay: as above; assay type: cell-based; settings: read-out: ABF Zone Diameter (cont. in mg/ml) E. Coli; for zone of inhibition at 3000 µg/mL: 3 mg/ml
Experimental: as §1

[7] = system: Penicillium avellaneum M2988; assay: as above; assay type: cell-based; settings: Hamigera avellanea, read-out: ABF Zone Diameter (cont. in mg/ml) P. Avell-aneum; for zone of inhibition at 3000 µg/mL: 3 mg/ml
Experimental: as §1

[8] = system: Streptococcus faecalis 05045; assay: as above; assay type: cell-based; settings: Enterococcus faecalis, AM-09 medium, read-out: ABF Zone Diameter (cont. in mg/ml) S. Fae-calis; for zone of inhibition at 3000 µg/mL: 3 mg/ml; for zone of inhibition at 1000 µg/mL: 1 mg/ml
Experimental: as §1

[9] = Table 2, three days incubation, read-out: L1210 in vitro IC50
[10] = Table 2, 60 to 65 hours with compound, read-out: HCA—3 in vitro IC50
[11] = Mus musculus, P388, ip, 120 h, read-out: P388 in vivo T/C × 100
[12] = Table 1, three days incubation, 50% inhibition of growth, read-out: L1210 in vitro ID50
[13] = Table 1, 60 to 65 hours with compound, 50% inhibition of growth, read-out: HCA—3 in vitro ID50

SMILES	pIC50 [1, 12]	pIC50 [2, 13]	response vs control in vivo at 12.5 mg/kg [3, 11]	response vs control in vivo at 25 mg/kg [3, 11]	response vs control in vivo at 50 mg/kg [3, 11]	zone of inhibition at 3000 µg/mL [4]	zone of inhibition at 3000 µg/mL [5]	zone of inhibition at 3000 µg/mL [6]	zone of inhibition at 3000 µg/mL [7]	zone of inhibition at 500 µg/mL [4]	zone of inhibition at 3000 µg/mL [8]	zone of inhibition at 1000 µg/mL [8]	further results
CCN(CC)CCn1nc2c3c(c(NCCNCCO)ccc31)Sc1c(O)ccc(O)c1-2 [2-[2-(Diethylamino)ethyl]-5-[[2-[(2-hydroxyethyl)amino]ethyl]amino]-2H[1]benzothiopyrano[4,3,2-cdlindazole-7,10-diol]			118%	121%	138%	14 mm	0 mm	0 mm	0 mm				pIC50 [1, 9]: < 5.82; pIC50 [2, 10]: < 5.82; response vs control in vivo at 6.25 mg/kg [3, 11]: 123%; zone of inhibition at 500 µg/mL ([8]; 0.5 mg/ml): 15 mm
CCN(CC)CCn1nc2c3c(c(N)ccc31)Sc1c(O)ccc(O)c1-2 [CH2CH2N(C2H5)2 / NH2 / 7,10-(OH)2, 5-amino-2-[2-(diethylamino)ethyl]-2H[1]-benzothiopyrano[4;3,2-cd]indazole-7,10-diol]						0 mm	0 mm	0 mm	0 mm		19 mm		pIC50 [1, 9]: < 5.66; pIC50 [2, 10]: < 5.66
CCN(CC)CCn1nc2c3c(c(N)ccc31)Sc1ccccc1-2 [CH2CH2N(C2H5)2 / NH2, 5-Amino-N,N-diethyl-2H[1]benzothiopyrano[4,3,2-cd]indazole-2-ethanamine]	6.89	5.96	144%	162%		0 mm	0 mm	0 mm				14 mm	zone of inhibition at 1000 µg/mL ([7]; 1 mg/ml): 14 mm
CCN(CC)CCNc1ccc2c3c(nn2CCN(CC)CC)-c2ccccc2Sc13 [CH2CH2N(C2H5)2 / NHCH2CH2N(C2H5)2, 5-[[2-(Diethylamino)ethyl]amino]-N,N-diethyl-2H[1]-benzothiopyrano[4,3,2-cd]indazofe-2-ethanamine]	6.85	6.35		155%					17 mm	14 mm	15 mm		zone of inhibition at 100 µg/mL ([5]; 0.1 mg/ml): 15 mm; zone of inhibition at 100 µg/mL ([6]; 0.1 mg/ml): 18 mm
CCN(CC)CCn1nc2c3c(c(NCCN)ccc31)Sc1ccccc1-2 [CH2CH2N(C2H5)2 / NHCH2CH2NH2, N-[2-[2-(Diethylamino)ethyl]-2H[1]benzothiopyrano[4,3,2-cd]indazol-5-yl]-1,2-ethanediamine]	7.34	7.01	297%	148%				0 mm	0 mm	19 mm		15 mm	P388 in vivo Cures ([3]; Dose 12.50 mg/kg): Cures; P388 in vivo Cures ([3]; Dose 25.00 mg/kg): Cures; response vs control in vivo at 3.12 mg/kg ([3]; Mus musculus, P388, ip, 120 h, Dose 3.12 mg/kg intraperitoneally once daily for five days, read-out: P388 in vivo T/C × 100): 178%; response vs control in vivo at 6.25 mg/kg [3, 11]: 215%; zone of inhibition at 500 µg/mL [5]: 20 mm

Second part, led by results:

pIC50 [1, 12]	pIC50 [2, 13]	SMILES	response vs control in vivo at 12.5 mg/kg [3, 11]	response vs control in vivo at 25 mg/kg [3, 11]	response vs control in vivo at 50 mg/kg [3, 11]	zone of inhibition at 3000 µg/mL [4]	zone of inhibition at 3000 µg/mL [5]	zone of inhibition at 3000 µg/mL [6]	zone of inhibition at 3000 µg/mL [7]	zone of inhibition at 500 µg/mL [4]	zone of inhibition at 3000 µg/mL [8]	zone of inhibition at 1000 µg/mL [8]	further results
5.70	5.74	CN(C)CCCn1nc2c3c(c(N)ccc31)Sc1ccccc1-2 [CH2CH2CH2N(CH3)2 / NH2]			121%		0 mm	15 mm	16 mm	16 mm	15 mm		response vs control in vivo at 100 mg/kg ([3]; Mus musculus, P388, ip, 120 h, Dose 100.00 mg/kg intraperitoneally once daily for five days, read-out: P388 in vivo T/C × 100): 182%; response vs control in vivo at 200 mg/kg ([3]; Mus musculus, P388, ip, 120 h, Dose 200.00 mg/kg intraperitoneally once daily for five days, survival time treated/control, read-out: P388 in vivo T/C × 100): 169%
7.00	6.62	CCN(CC)CCn1nc2c3c(c(N=CN(C)C)ccc31)Sc1ccccc1-2 [CH2CH2N(C2H5)2 / N=CHN(CH3)2, N'-[2-(2-(Diethylamino)ethyl]-2H[1]benzothiopyrano[4,3,2-cd]indazol-5-yl]-N,N-dimethyl-methanimidamide]		145%	206%	0 mm		0 mm	16 mm		0 mm		zone of inhibition at 1000 µg/mL [5]: 16 mm
7.62	7.06	NCCn1nc2c3c(c(NCCNCCO)ccc31)Sc1ccccc1-2 [CH2CH2NH2 / NHCH2NHCH2CH2OH, 2-[[2-[[2-(2-aminoethyl)-2H[1]benzothiopyrano[4,3,2-cd]indazol-5-yl]amino]ethyl]amino]ethanol]						0 mm	0 mm	15 mm	0 mm		zone of inhibition at 500 µg/mL [5]: 15 mm
6.24	5.85	O=C1OCCN1CCNc1ccc2c3c(nn2CCNCCO)-c2ccccc2Sc13 [CH2CH2NHCH0H2OH /]						15 mm	0 mm			17 mm	zone of inhibition at 1000 µg/mL ([4]; 1 mg/ml): 14 mm; zone of inhibition at 1000 µg/mL [5]: 16 mm
